Reference: patent US6399335B1, “γ-phosphoester nucleoside triphosphates” (Advanced Research and Technology Institute, Inc., priority 1999, dated 2002)

How the values were obtained:
[1] = biological target: T7 DNA-dependent RNA polymerase (Escherichia phage T7, UniProt P00573); assay: Colorimetric RNA synthesis / PNP release assay; format: biochemical
Procedure: Production of the PNP-NTP analogs. PNP-GTP and PNP-ATP are made in one high yielding reaction from commercially available starting materials (Scheme 1). When the nucleotide analog is used in RNA synthesis, the β and γ phosphates are released (as pyrophosphate) with the attached PNP. While this compound is colorless, the enzyme alkaline phosphatase rapidly hydrolyzes the pyrophosphates to release PNP, which, at the pH of the polymerase reaction, has a yellow color that absorbs maximally at […]. [drawing 4] […]
PNP-NTPs are useful as continuous reporters for RNA polymerase activity. To simplify the components, transcription reactions were performed in the presence of alkaline phosphatase, a homodeoxycytidylate template that directs the incorporation of only guanylates (named WV-15C), PNP-GTP, and T7 RNA polymerase. The use of homopolymers is well accepted in assessing the activities of viral RNA polymerases, including the HCV RdRp (Lohman et al., 1997. J. Virol., 71, 8416). The reaction was monitored in a spectrometer at […], the maximum absorbance for PNP. […] There were several negative controls in this experiment, all of which yielded minimal PNP release: 1) a reaction without T7 RNA polymerase; 2) a reaction that lacked the essential cofactor, Mg^2+; 3) a reaction that contained homothymidylate (WV-15T), rather than WV-15C. […]

[2] = Stability of PNP-NTPs in plasma (PNP release, absorbance at 405 nm)
Excerpt: (§1) To test the effect of more complex, biologically relevant mixtures of enzymes on PNP-NTP stability, blood was collected and centrifuged to remove cells and collect the plasma.

[3] = biological target: RdRp of bovine viral diarrhea virus (Bovine viral diarrhea virus, UniProt P19711); assay: RNA synthesis assay; format: biochemical; conditions: compared with T7 polymerase and brome mosaic virus RdRp results
Sequence of RdRp of bovine viral diarrhea virus (P19711 3270-3988): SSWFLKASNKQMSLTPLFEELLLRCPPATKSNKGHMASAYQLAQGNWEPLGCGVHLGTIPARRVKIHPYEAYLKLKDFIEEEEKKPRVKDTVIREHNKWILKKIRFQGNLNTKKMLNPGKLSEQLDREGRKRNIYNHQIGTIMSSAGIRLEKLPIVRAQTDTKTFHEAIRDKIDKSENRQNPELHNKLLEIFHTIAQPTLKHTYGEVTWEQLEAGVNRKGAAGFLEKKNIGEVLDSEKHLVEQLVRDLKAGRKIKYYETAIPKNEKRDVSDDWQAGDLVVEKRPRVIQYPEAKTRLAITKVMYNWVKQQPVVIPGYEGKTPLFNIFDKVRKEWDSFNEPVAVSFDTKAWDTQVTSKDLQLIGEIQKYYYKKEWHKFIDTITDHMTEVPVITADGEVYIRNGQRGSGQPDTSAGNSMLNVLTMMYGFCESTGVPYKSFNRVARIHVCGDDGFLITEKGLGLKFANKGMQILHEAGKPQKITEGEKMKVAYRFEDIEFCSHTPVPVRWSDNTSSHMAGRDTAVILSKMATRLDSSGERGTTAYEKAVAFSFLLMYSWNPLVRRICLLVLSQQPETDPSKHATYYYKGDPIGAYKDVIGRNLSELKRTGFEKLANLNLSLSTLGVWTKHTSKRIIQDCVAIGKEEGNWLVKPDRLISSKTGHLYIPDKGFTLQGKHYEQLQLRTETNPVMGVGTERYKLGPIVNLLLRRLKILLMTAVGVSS
Excerpt: (§2) PNP-NTPs are useful reporters for the activities of a variety of RNA polymerases. […] PNP release was also observed during RNA synthesis by the SP6 RNA polymerase.

brome mosaic virus RdRp = brome mosaic virus RdRp (Brome mosaic virus, UniProt P03594); assay: RNA synthesis assay; format: biochemical
Sequence of brome mosaic virus RdRp (P03594 whole entry): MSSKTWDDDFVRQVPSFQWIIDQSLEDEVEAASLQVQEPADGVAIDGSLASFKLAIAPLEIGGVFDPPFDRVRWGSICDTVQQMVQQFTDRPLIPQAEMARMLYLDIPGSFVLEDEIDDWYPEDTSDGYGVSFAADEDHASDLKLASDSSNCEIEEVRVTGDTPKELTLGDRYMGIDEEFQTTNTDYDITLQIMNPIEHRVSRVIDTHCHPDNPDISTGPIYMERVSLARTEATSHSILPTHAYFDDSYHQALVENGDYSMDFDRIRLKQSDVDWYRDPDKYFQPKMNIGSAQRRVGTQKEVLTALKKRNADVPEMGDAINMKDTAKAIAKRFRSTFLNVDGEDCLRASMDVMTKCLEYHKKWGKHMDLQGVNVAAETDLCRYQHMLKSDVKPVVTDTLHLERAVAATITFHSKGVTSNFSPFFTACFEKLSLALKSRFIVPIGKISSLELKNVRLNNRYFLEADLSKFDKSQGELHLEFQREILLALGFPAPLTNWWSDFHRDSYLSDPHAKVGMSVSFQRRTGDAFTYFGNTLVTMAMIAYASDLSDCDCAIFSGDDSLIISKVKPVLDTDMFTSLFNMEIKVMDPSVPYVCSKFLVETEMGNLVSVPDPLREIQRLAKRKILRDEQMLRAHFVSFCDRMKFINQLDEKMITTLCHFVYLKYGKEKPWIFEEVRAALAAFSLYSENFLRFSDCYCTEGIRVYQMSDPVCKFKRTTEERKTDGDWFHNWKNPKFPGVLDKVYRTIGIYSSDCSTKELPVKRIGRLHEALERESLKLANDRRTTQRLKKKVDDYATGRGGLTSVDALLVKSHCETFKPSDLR
Sequence of brome mosaic virus RdRp (P03588 whole entry, further chain): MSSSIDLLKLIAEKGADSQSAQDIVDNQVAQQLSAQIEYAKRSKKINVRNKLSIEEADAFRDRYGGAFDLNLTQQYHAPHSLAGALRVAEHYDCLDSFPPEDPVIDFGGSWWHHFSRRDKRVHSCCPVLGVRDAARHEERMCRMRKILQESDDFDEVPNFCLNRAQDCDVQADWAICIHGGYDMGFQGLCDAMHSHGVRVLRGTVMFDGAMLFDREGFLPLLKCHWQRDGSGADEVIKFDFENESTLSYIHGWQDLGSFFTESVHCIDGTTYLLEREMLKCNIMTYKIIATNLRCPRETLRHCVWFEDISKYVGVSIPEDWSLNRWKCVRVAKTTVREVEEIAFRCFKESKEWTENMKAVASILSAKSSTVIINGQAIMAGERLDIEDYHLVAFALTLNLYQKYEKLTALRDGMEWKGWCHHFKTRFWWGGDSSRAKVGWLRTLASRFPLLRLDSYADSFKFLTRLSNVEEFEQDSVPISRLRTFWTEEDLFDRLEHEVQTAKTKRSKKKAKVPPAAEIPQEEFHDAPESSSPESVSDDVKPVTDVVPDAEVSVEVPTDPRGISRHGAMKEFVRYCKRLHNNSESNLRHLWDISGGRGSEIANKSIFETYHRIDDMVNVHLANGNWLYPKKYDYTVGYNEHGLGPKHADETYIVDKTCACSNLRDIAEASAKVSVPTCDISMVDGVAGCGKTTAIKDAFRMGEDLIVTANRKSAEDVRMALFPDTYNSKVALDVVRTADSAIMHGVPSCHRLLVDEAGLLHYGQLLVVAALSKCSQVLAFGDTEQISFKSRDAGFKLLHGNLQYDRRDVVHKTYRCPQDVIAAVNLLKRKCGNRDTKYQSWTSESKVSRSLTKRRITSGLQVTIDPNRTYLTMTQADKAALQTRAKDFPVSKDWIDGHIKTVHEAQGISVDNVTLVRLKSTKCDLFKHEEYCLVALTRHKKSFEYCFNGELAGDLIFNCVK
Excerpt: as §2

alkaline phosphatase = conditions: incubation with alkaline phosphatase, without T7 RNA polymerase
Excerpt: as §1

Sequence of T7 DNA-dependent RNA polymerase (P00573 whole entry): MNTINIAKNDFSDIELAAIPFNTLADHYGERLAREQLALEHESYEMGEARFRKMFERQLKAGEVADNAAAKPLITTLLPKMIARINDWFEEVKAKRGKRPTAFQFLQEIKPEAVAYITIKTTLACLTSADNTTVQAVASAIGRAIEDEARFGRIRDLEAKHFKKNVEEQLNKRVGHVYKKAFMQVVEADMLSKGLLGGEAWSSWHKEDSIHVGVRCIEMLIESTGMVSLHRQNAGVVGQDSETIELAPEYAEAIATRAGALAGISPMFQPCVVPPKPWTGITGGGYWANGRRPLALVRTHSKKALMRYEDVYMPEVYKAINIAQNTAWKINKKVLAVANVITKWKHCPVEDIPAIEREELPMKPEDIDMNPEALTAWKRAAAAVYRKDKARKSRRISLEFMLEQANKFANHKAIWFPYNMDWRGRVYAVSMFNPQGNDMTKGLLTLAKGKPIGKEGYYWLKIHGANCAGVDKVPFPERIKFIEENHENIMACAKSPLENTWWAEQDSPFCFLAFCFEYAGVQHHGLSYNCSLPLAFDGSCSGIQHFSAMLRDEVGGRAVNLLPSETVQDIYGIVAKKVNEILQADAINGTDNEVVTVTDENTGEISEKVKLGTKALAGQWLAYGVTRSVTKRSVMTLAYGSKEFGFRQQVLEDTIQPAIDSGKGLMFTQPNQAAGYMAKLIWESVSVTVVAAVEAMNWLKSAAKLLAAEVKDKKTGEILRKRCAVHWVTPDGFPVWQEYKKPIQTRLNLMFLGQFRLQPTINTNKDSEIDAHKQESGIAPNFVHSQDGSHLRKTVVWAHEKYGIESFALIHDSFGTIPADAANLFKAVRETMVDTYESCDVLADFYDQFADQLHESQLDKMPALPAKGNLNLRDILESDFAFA

Row | Structure (SMILES) | substrate for the polymerase [1] | increase in absorbance due to PNP release ([1]; alkaline phosphatase, WV-15C homodeoxycytidylate template, monitored at 405 nM) | RNA synthesis directed when used in place of GTP ([1]; compared with normal GTP) | absorbance higher than background ([1]; complete transcription reaction with cognate template, 3 h after start) [fold] | absorbance vs background ([1]; ten minutes after start, alkaline phosphatase, WV-15C template, 405 nM) | absorbance at 405 nm ([2]; plasma to 10% final volume, 7 h incubation) | PNP levels ([2]; plasma with alkaline phosphatase, polymerase and noncognate template, 7 hours) | RNA synthesis directed when used in place of GTP [3] | substrate for the polymerase (brome mosaic virus RdRp) | RNA synthesis directed when used in place of GTP (brome mosaic virus RdRp; compared with normal GTP) | PNP release / resistance to phosphatases (alkaline phosphatase) | increase in absorbance at 405 nm ([1]; homothymidylate template) | trends in plasma reactions ([2]; WV-15T template, compared with PNP-GTP results)
1 | Nc1nc2c(ncn2[C@@H]2O[C@H](COP(=O)(O)OP(=O)(O)OP(=O)(O)Oc3ccc([N+](=O)[O-])cc3)[C@@H](O)[C@H]2O)c(=O)[nH]1 [PNP-GTP, Guanosine-5′-(γ-4-nitrophenyl)triphosphate] | suitable substrate | linear over a two-hour period | levels similar to reactions containing normal GTP | > 7 | absorbance at levels distinctly above background | did not increase the absorbance at 405 nm | increased PNP levels slightly | Identical results | suitable substrate | levels similar to reactions containing normal GTP | did not result in PNP release | – | –
2 | Nc1ncnc2c1ncn2[C@@H]1O[C@H](COP(=O)(O)OP(=O)(O)OP(=O)(O)Oc2ccc([N+](=O)[O-])cc2)[C@@H](O)[C@H]1O [PNP-ATP, Adenosine-5′-(γ-4-nitrophenyl)triphosphate] | – | – | – | – | – | – | – | – | – | – | – | linear increase | Identical trends
